Data taken from patent US6335168B1 (priority 1998, dated 2002).

System: A118G variant human mu opioid receptor
Format: cell-based
Settings: GIRK activation in oocytes

## β-endorphin
  difference of EC50 values between the A118G variant and the most common mu opioid receptors: about three
